Reference: patent US20060069132A1, “Azolecarboxamide herbicides” (priority 2004, published 2006)

Experiments:
[1] = test system: ducksalad; experiment: Test B flooded paddy test; type: in vivo, Heteranthera limosa; conditions: 1000 g ai/ha, scale 0 to 100 (0 no effect, 100 complete control)
How it was run: (§1)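 Treated at 2-leaf (paddy) or 1–4-leaf, 2–18 cm (postemergence); greenhouse 13–15 d; visual score vs control, 0 none to 100 complete control; dash = not tested.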

[2] = test system: cocklebur; experiment: Test B pre-/postemergence herbicide test; type: in vivo, Xanthium strumarium; conditions: for Cocklebur plant response rating: postemergence, scale 0 (no effect) to 100 (complete control)
How it was run: (§2)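 Herbicidal effect was judged by eye on a 0–100 scale after plants stood 13 to 15 days in the greenhouse following pre- or postemergence treatment with surfactant-containing formulations.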

[3] = test system: barnyardgrass; experiment: Test B pre-/postemergence herbicide test; type: in vivo, Echinochloa crus-galli; conditions: for Barnyardgrass plant response rating: postemergence, scale 0 (no effect) to 100 (complete control)
How it was run: as §2

[4] = test system: ducksalad; experiment: Test C flooded paddy test; type: in vivo, Heteranthera limosa
[5] = test system: small flower umbrella sedge; experiment: Test B flooded paddy test; type: in vivo, Cyperus difformis; conditions: 1000 g ai/ha, scale 0 to 100 (0 no effect, 100 complete control)
How it was run: as §1

[6] = test system: wild oat; experiment: Test B postemergence herbicide test; type: in vivo, Avena fatua; conditions: postemergence
How it was run: (§3)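 Visual ratings, 0 (no effect) to 100 (complete control), made versus controls after 13–15 d greenhouse. Paddy plants treated at 2-leaf stage; postemergence plants at 1- to 4-leaf stage, 2–18 cm tall.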

[7] = test system: rice; experiment: Test B flooded paddy test; type: in vivo, Oryza sativa; conditions: 1000 g ai/ha, scale 0 to 100 (0 no effect, 100 complete control)
How it was run: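 Postemergence plants were sprayed with formulated test chemicals at 2 to 18 cm height (1- to 4-leaf stage); paddy species were grown to the 2-leaf stage. After 13 to 15 days in a greenhouse, injury was rated visually against untreated controls on a 0–100 scale (0 = no effect, 100 = complete control).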

[8] = test system: corn; experiment: Test B pre-/postemergence herbicide test; type: in vivo, Zea mays; conditions: for Corn plant response rating: postemergence
How it was run: (§4)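 Response was scored visually 13 to 15 days after treatment against untreated greenhouse controls, 0 meaning no effect and 100 complete control. Formulations (solvent mixture plus surfactant) went onto soil after planting, onto foliage of 1- to 4-leaf plants, and onto 2-leaf plants in a flooded paddy set including rice and barnyardgrass.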

[9] = test system: lambsquarters; experiment: Test B pre-/postemergence herbicide test; type: in vivo, Chenopodium album; conditions: for Lambsquarters plant response rating: postemergence
How it was run: as §4

[10] = test system: pigweed; experiment: Test B pre-/postemergence herbicide test; type: in vivo, Amaranthus retroflexus; conditions: for Pigweed plant response rating: postemergence
How it was run: as §4

[11] = test system: rice; experiment: Test B pre-/postemergence herbicide test; type: in vivo, Oryza sativa; conditions: 0 = no effect, 100 = complete control, preemergence
How it was run: as §4

[12] = test system: Surinam grass; experiment: Test B pre-/postemergence herbicide test; type: in vivo, Urochloa decumbens; conditions: for Surinam Grass plant response rating: postemergence
How it was run: as §4

[13] = test system: large crabgrass; experiment: Test B pre-/postemergence herbicide test; type: in vivo, Digitaria sanguinalis; conditions: for Crabgrass, Large plant response rating: postemergence
How it was run: as §4

[14] = test system: morningglory; experiment: Test B pre-/postemergence herbicide test; type: in vivo, Ipomoea coccinea; conditions: for Morningglory plant response rating: postemergence
How it was run: as §2

[15] = test system: giant foxtail; experiment: Test B pre-/postemergence herbicide test; type: in vivo, Setaria faberi; conditions: for Foxtail, Giant plant response rating: postemergence
How it was run: as §4

[16] = test system: velvetleaf; experiment: Test B pre-/postemergence herbicide test; type: in vivo, Abutilon theophrasti; conditions: for Velvetleaf plant response rating: postemergence
How it was run: as §4

[17] = test system: smallflower umbrella sedge; experiment: Test C flooded paddy test; type: in vivo, Cyperus difformis
[18] = test system: wheat; experiment: Test B postemergence herbicide test; type: in vivo, Triticum aestivum; set-up: key to Wheat plant response rating: 0 = no effect, 100 = complete control; conditions: postemergence
How it was run: as §3

[19] = test system: blackgrass; experiment: Test B postemergence herbicide test; type: in vivo, Alopecurus myosuroides; conditions: postemergence, visual rating, scale 0 (no effect) to 100 (complete control)
How it was run: as §1

[20] = test system: barnyardgrass; experiment: Test C flooded paddy test; type: in vivo, Echinochloa crus-galli
How it was run: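 Injury scored visually against controls on a 0 (no effect) to 100 (complete control) scale, 12 to 14 days after treatment in greenhouse. Flooded paddy plants treated at 2-leaf stage; postemergence plants at 1- to 4-leaf stage, 2 to 18 cm tall.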

[21] = test system: barnyardgrass; experiment: Test B flooded paddy test; type: in vivo, Echinochloa crus-galli; conditions: 1000 g ai/ha, scale 0 to 100 (0 no effect, 100 complete control)
How it was run: as §1

[22] = test system: rice; experiment: Test C flooded paddy test; type: in vivo, Oryza sativa
How it was run: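 Plants were grown to the 1- to 4-leaf stage (2–18 cm) and then treated postemergence, or grown to the 2-leaf stage for the flooded paddy test. They were held in a greenhouse for 12 to 14 days and then scored by eye against controls, where 0 is no effect and 100 is complete control.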

[23] = 125 g ai/ha, 0 = no effect, 100 = complete control, preemergence
[24] = 500 g ai/ha, visual rating, 0 = no effect, 100 = complete control, preemergence
[25] = 125 g ai/ha, scale 0 to 100 (0 no effect, 100 complete control)
[26] = 250 g ai/ha, scale of 0 to 100, 0 is no effect, 100 is complete control
[27] = 500 g ai/ha, visual rating after 12 to 14 days, scale 0 to 100 (0 no effect, 100 complete control)
[28] = 125 g ai/ha, visual rating, scale 0 (no effect) to 100 (complete control)
[29] = 500 g ai/ha, scale 0 to 100, 0 is no effect, 100 is complete control

CCNC(=O)c1cncc(NC(=O)c2cc(C(C)(C)C)nn2CC)c1 [Compound 259]
75: Plant response rating, Ducksalad [4, 27]
70: Plant response rating, Barnyardgrass [3, 24] | Sedge, Umbrella plant response rating [5] | Rice plant response rating [7] | Plant response rating, Foxtail, Giant [15, 24] | Plant response rating, Sedge, Umbrella [17, 27]
65: Ducksalad plant response rating [4, 26]
10: Oat, Wild plant response rating [6, 28] | Corn plant response rating [8, 28] | Lambsquarters plant response rating [9, 28] | Surinam Grass plant response rating [12, 28] | Wheat plant response rating [18, 28] | Blackgrass plant response rating ([19]; 125 g ai/ha)
30: Lambsquarters plant response rating [9, 29] | Pigweed plant response rating [10, 28] | Plant response rating, Surinam Grass [12, 24] | Barnyardgrass plant response rating [21]
60: Ducksalad plant response rating [4, 25]
35: Sedge, Umbrella plant response rating [17, 25]
90: Ducksalad plant response rating [1] | Pigweed plant response rating [10, 29] | Plant response rating, Morningglory [14, 24]
0: Cocklebur plant response rating (0 to 100 scale) [2, 23] | Plant response rating, Cocklebur [2, 24] | Cocklebur plant response rating ([2]; 125 g ai/ha, visual rating) | Barnyardgrass plant response rating (0 to 100 scale) [3, 23] | Barnyardgrass plant response rating ([3]; 125 g ai/ha, visual rating) | Barnyardgrass plant response rating ([3]; 500 g ai/ha, visual rating) | Ducksalad plant response rating ([4]; 62 g ai/ha, scale 0 to 100) | Corn plant response rating (0 to 100 scale) [8, 23] | Plant response rating, Corn [8, 24] | Lambsquarters plant response rating (0 to 100 scale) [9, 23] | Pigweed plant response rating (0 to 100 scale) [10, 23] | Rice plant response rating (0 to 100 scale) ([11]; 125 g ai/ha) | Plant response rating, Rice ([11]; 500 g ai/ha, visual rating) | Surinam Grass plant response rating (0 to 100 scale) [12, 23] | Crabgrass, Large plant response rating (0 to 100 scale) [13, 23] | Crabgrass, Large plant response rating [13, 28] | Morningglory plant response rating (0 to 100 scale) [14, 23] | Morningglory plant response rating [14, 28] | Morningglory plant response rating [14, 29] | Foxtail, Giant plant response rating (0 to 100 scale) [15, 23] | Foxtail, Giant plant response rating [15, 28] | Foxtail, Giant plant response rating [15, 29] | Velvetleaf plant response rating (0 to 100 scale) [16, 23] | Plant response rating, Velvetleaf [16, 24] | Velvetleaf plant response rating [16, 28] | Velvetleaf plant response rating [16, 29] | Sedge, Umbrella plant response rating ([17]; 62 g ai/ha, scale 0 to 100) | Barnyardgrass plant response rating ([20]; 62 g ai/ha, scale 0 to 100 (0 no effect, 100 complete control)) | Barnyardgrass plant response rating [20, 25] | Barnyardgrass plant response rating [20, 26] | Plant response rating, Barnyardgrass [20, 27] | Rice plant response rating ([22]; 62 g ai/ha, scale 0 to 100) | Rice plant response rating [22, 25] | Rice plant response rating [22, 26] | Plant response rating, Rice [22, 27]
100: Plant response rating, Pigweed [10, 24]
50: Plant response rating, Crabgrass, Large [13, 24]
20: Cocklebur plant response rating ([2]; 500 g ai/ha, visual rating) | Oat, Wild plant response rating [6, 29] | Corn plant response rating [8, 29] | Surinam Grass plant response rating [12, 29] | Crabgrass, Large plant response rating [13, 29] | Wheat plant response rating [18, 29] | Blackgrass plant response rating ([19]; 500 g ai/ha)
55: Sedge, Umbrella plant response rating [17, 26]
